Source: PubChem BioAssay AID2060333 (Molecular Pharmacology Branch, DTP, NCI, 2025)

Tested on: 845751-090-R-J2-PDC tumor spheroid viability
Assay: Anticancer human tumor 845751-090-R-J2-PDC patient-derived head and neck squamous carcinoma cell line growth inhibition [IpAb]
Details: spheroids with HUVEC and MSC; for IC50: curve of first compound; for viability, T/C: stronger effect = lower value
Text: Combinatorial screen of targeted agents with ipatasertib and abemaciclib in multi-cell type tumor spheroids
A high-throughput screen of multi-cell type tumor spheroids was designed to identify active combinations of targeted small molecules and ipatasertib or abemaciclib. Complex spheroids include a stromal component modeled by human endothelial cells (HUVEC) and fibroblasts modeled by human mesenchymal stem cells (MSCs). The concentration ranges selected for each drug and investigational agent were based upon clinically achievable concentrations if the clinical Cmax of the agent was known.
Compounds. The drugs and investigational agents: ipatasertib (NSC767898), abemaciclib(NSC768073), selumetinib (NSC741078), trametinib (758246), adavosertib (NSC754352), everolimus (NSC733504), sapanisertib (NSC764658), vemurafenib (NSC761431), venetoclax (NSC766270), copanlisib (NSC809693), apelisib (NSC765974), palbociblib (NSC758247), vemurafenib (NSC761431), dabrafenib (NSC764134), ravoxertinib (NSC781343), BMS-387032 (NSC767048), sotorasib (NSC818433), talazoparib (NSC767125) and afursertib (NSC778305), were obtained from the National Cancer Institute (NCI) Developmental Therapeutics Program Chemical Repository. The FDA-approved anticancer drug set is available from the NCI Developmental Therapeutics Program. […] The stock solutions were prepared in dimethyl sulfoxide (DMSO, Sigma-Aldrich, St. Louis, MO, cat. D2650) at 800-fold the tested concentration and stored at -70 degrees C prior to their use. All drugs and investigational agents were tested over a range starting from a high concentration at or near the clinical Cmax and decreasing in half-log increments. If the clinical Cmax for an agent had not been determined, the highest concentration tested was 10 microM.
NCI60 Cell Culture. NCI60 cell lines were obtained from the NCI Developmental Therapeutics Program Tumor Repository. For each lot of cells, the Repository performed Applied Biosystems AmpFLSTR Identifiler testing with PCR amplification to confirm consistency with the published Identifier STR profile for each cell line. Cells were kept in continuous culture for no more than 20 passages. The optimal seeding densities for each of the cell lines at each time point assessed were determined prior to performing the concentration response studies. Briefly, the NCI60 human tumor lines were grown as monolayers in RPMI 1640 medium supplemented with 10% FBS and 2 mmol/L L-glutamine.
An additional 9 lines were from the NCI60 cell line panel including MDA-MB-231 breast carcinoma, MDA-MB-468 breast carcinoma, MCF7 breast carcinoma, Hs578T breast carcinoma, MALME-3M melanoma, SK-MEL-2 melanoma, SK-OV-3 ovarian carcinoma, DU-145 prostate carcinoma, PC-3 prostate carcinoma, all cell lines along with major genetic alterations are listed on Table 2. Pooled donor human umbilical vein endothelial cells (HUVEC, Lonza, cat. CC-2519) and human mesenchymal stem cells (hMSC, Lonza, cat. PT-2501) were purchased from Lonza (Walkersville, MD).
PDMR cell lines were grown in complete medium (DC medium): Dulbecco's modified Eagle's medium (DMEM)/F12 supplemented with 5% fetal bovine serum (FBS), 2 mM L-glutamine, 100 U/mL penicillin and 100 µg/ml streptomycin, 0.4 µg/ml hydrocortisone, 10 ng/ml epidermal growth factor (EGF) recombinant human protein, 24 µg/mL adenine, and 0.1 mg/mL primocin. During culture from frozen stock vials, PDMR cells were cultured in the same medium containing 10 µM Y-27632 (see Table 3). The PDCs were cultured in complete DMEM/F12 media without 10 microM Y-27632 dihydrochloride for at least two passages prior to the screen. The pooled donor HUVEC and hMSC were cultured in endothelial cell growth medium 2 (PromoCell, Heidelberg, Germany, cat. C-22011) and mesenchymal stem cell growth medium 2 (PromoCell, cat. C-28009), respectively. For all experiments, HUVEC and hMSC were used at passages </=5.
[…]
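Note: spheroids exposed to compounds for 7 days before readout.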
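Throughout, for viability, T/C: CTG3D luminescence normalised so that 100% = DMSO vehicle control.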

Question: `C=CCn1c(=O)c2cnc(Nc3ccc(N4CCN(C)CC4)cc3)nc2n1-c1cccc(C(C)(C)O)n1` + CC(C)NCC(C(=O)N1CCN(c2ncnc3c2C(C)CC3O)CC1)c1ccc(Cl)cc1 was tested. Which IC50 (second compound 0.1 µM) did it give?
Answer: 54.6 nM

Question: And the IC50 (second compound 0.316 µM)?
Answer: < 31.6 nM

Question: What about the IC50 (second compound 1 µM) of the same compound?
Answer: < 31.6 nM

Question: And the IC50 (second compound 3.16 µM)?
Answer: < 31.6 nM

Question: And the IC50 (second compound 10 µM)?
Answer: < 31.6 nM

Question: And the viability, T/C (second compound 0.1 µM, first compound 0.0316 µM)?
Answer: 62.1%

Question: And the viability, T/C (second compound 0.1 µM, first compound 0.1 µM)?
Answer: 38.2%

Question: And the viability, T/C (second compound 0.1 µM, first compound 0.316 µM)?
Answer: 22.2%

Question: And the viability, T/C (second compound 0.1 µM, first compound 1 µM)?
Answer: 21.7%

Question: What about the viability, T/C (second compound 0.1 µM, first compound 3.16 µM) of the same compound?
Answer: 35.8%

Question: What about the viability, T/C (second compound 0.1 µM, first compound 10 µM) of the same compound?
Answer: 56.6%

Question: What about the viability, T/C (second compound 0.316 µM, first compound 0.0316 µM) of the same compound?
Answer: 34%

Question: And the viability, T/C (second compound 0.316 µM, first compound 0.1 µM)?
Answer: 22.1%

Question: What about the viability, T/C (second compound 0.316 µM, first compound 0.316 µM) of the same compound?
Answer: 19.9%

Question: What about the viability, T/C (second compound 0.316 µM, first compound 1 µM) of the same compound?
Answer: 16.9%

Question: And the viability, T/C (second compound 0.316 µM, first compound 3.16 µM)?
Answer: 22.1%

Question: What about the viability, T/C (second compound 0.316 µM, first compound 10 µM) of the same compound?
Answer: 28.4%

Question: What about the viability, T/C (second compound 1 µM, first compound 0.0316 µM) of the same compound?
Answer: 24.5%

Question: What about the viability, T/C (second compound 1 µM, first compound 0.1 µM) of the same compound?
Answer: 15%

Question: What about the viability, T/C (second compound 1 µM, first compound 0.316 µM) of the same compound?
Answer: 11.1%

Question: And the viability, T/C (second compound 1 µM, first compound 1 µM)?
Answer: 13.7%

Question: And the viability, T/C (second compound 1 µM, first compound 3.16 µM)?
Answer: 22.9%

Question: What about the viability, T/C (second compound 1 µM, first compound 10 µM) of the same compound?
Answer: 18.9%

Question: What about the viability, T/C (second compound 3.16 µM, first compound 0.0316 µM) of the same compound?
Answer: 19.2%

Question: What about the viability, T/C (second compound 3.16 µM, first compound 0.1 µM) of the same compound?
Answer: 8.76%

Question: What about the viability, T/C (second compound 3.16 µM, first compound 0.316 µM) of the same compound?
Answer: 7.09%

Question: What about the viability, T/C (second compound 3.16 µM, first compound 1 µM) of the same compound?
Answer: 32.9%

Question: What about the viability, T/C (second compound 3.16 µM, first compound 3.16 µM) of the same compound?
Answer: 19.9%

Question: And the viability, T/C (second compound 3.16 µM, first compound 10 µM)?
Answer: 11.9%

Question: And the viability, T/C (second compound 10 µM, first compound 0.0316 µM)?
Answer: 6.27%

Question: And the viability, T/C (second compound 10 µM, first compound 0.1 µM)?
Answer: 4.29%

Question: What about the viability, T/C (second compound 10 µM, first compound 0.316 µM) of the same compound?
Answer: 4.36%

Question: What about the viability, T/C (second compound 10 µM, first compound 1 µM) of the same compound?
Answer: 14%

Question: And the viability, T/C (second compound 10 µM, first compound 3.16 µM)?
Answer: 13.9%

Question: What about the viability, T/C (second compound 10 µM, first compound 10 µM) of the same compound?
Answer: 8.16%

Question: What does the source list for `Cn1cnc2c(F)c(Nc3ccc(Br)cc3Cl)c(C(=O)NOCCO)cc21` + CC(C)NCC(C(=O)N1CCN(c2ncnc3c2C(C)CC3O)CC1)c1ccc(Cl)cc1?
Answer: IC50 (second compound 0.1 µM): < 9.49 nM; IC50 (second compound 0.316 µM): < 9.49 nM; IC50 (second compound 1 µM): < 9.49 nM; IC50 (second compound 3.16 µM): < 9.49 nM; IC50 (second compound 10 µM): < 9.49 nM; viability, T/C (second compound 0.1 µM, first compound 0.00949 µM): 40.2%; viability, T/C (second compound 0.1 µM, first compound 0.03 µM): 29.9%; viability, T/C (second compound 0.1 µM, first compound 0.0949 µM): 23.6%; viability, T/C (second compound 0.1 µM, first compound 0.3 µM): 20.6%; viability, T/C (second compound 0.1 µM, first compound 0.949 µM): 16.6%; viability, T/C (second compound 0.1 µM, first compound 3 µM): 12.3%; viability, T/C (second compound 0.316 µM, first compound 0.00949 µM): 17.2%; viability, T/C (second compound 0.316 µM, first compound 0.03 µM): 15.4%; viability, T/C (second compound 0.316 µM, first compound 0.0949 µM): 11.9%; viability, T/C (second compound 0.316 µM, first compound 0.3 µM): 11.2%; viability, T/C (second compound 0.316 µM, first compound 0.949 µM): 7.05%; viability, T/C (second compound 0.316 µM, first compound 3 µM): 5%; viability, T/C (second compound 1 µM, first compound 0.00949 µM): 14.4%; viability, T/C (second compound 1 µM, first compound 0.03 µM): 10.5%; viability, T/C (second compound 1 µM, first compound 0.0949 µM): 6.55%; viability, T/C (second compound 1 µM, first compound 0.3 µM): 4.68%; viability, T/C (second compound 1 µM, first compound 0.949 µM): 4.96%; viability, T/C (second compound 1 µM, first compound 3 µM): 2.43%; viability, T/C (second compound 3.16 µM, first compound 0.00949 µM): 11.3%; viability, T/C (second compound 3.16 µM, first compound 0.03 µM): 5.57%; viability, T/C (second compound 3.16 µM, first compound 0.0949 µM): 3.02%; viability, T/C (second compound 3.16 µM, first compound 0.3 µM): 3.4%; viability, T/C (second compound 3.16 µM, first compound 0.949 µM): 1.75%; viability, T/C (second compound 3.16 µM, first compound 3 µM): 1.07%; viability, T/C (second compound 10 µM, first compound 0.00949 µM): 2.67%; viability, T/C (second compound 10 µM, first compound 0.03 µM): 1.92%; viability, T/C (second compound 10 µM, first compound 0.0949 µM): 1.37%; viability, T/C (second compound 10 µM, first compound 0.3 µM): 1.13%; viability, T/C (second compound 10 µM, first compound 0.949 µM): 2.24%; viability, T/C (second compound 10 µM, first compound 3 µM): 0.56%
